Measured values reported in patent publication US11590105B2, “Intrathecal administration of levetiracetam” (Sintetica S.A., priority 2019, dated 2023).

Assay: Osmolality of various concentrations of levetiracetam in water
Assay type: physicochemical
Source text: Sodium chloride and other halide salts that affect the tonicity of the solution are preferably omitted from the formulations and unnecessary because levetiracetam itself yields an isotonic (or slightly above isotonic) formulation in the formulations of the present invention. The following table gives the osmolality of various concentrations of levetiracetam in water: […]

Work on `CC[C@@H](C(N)=O)N1CCCC1=O` [Levetiracetam, (−)-(S)-α-ethyl-2-oxo-1-pyrrolidine acetamide] yielded an Osmolality (levetiracetam conc. 2.75 mg/ml in water) of 16 mOsm/kg, an Osmolality (levetiracetam conc. 45 mg/ml in water) of 262 mOsm/kg and an Osmolality (levetiracetam conc. 50 mg/ml in water) of 292 mOsm/kg. The Osmolality (levetiracetam conc. 60 mg/ml in water) was 348 mOsm/kg and the Osmolality (levetiracetam conc. 65 mg/ml in water) was 377 mOsm/kg.
